Experimental data: US7423114B2, “GD2 ligands” (McGill University, priority 2002, dated 2008)
“Also recorded” adds a separate entry of the source.

Key:
EL4 GD2^positive cells = assay: Intracellular calcium by flow cytometry (Rhod-2 AM); type: cell-based, mouse; conditions: PP1 10 μM, EL4 GD2positive cells
Description: (c) Effect of GD2 ligands on intracellular calcium concentrations. Resting EL4 GD2positive cells were treated with mAb 3F8 (13 nM), control mouse IgG (mIg) or the calcium ionophore A23187. Intracellular calcium concentration was evaluated over time by flow cytometry using the calcium-sensitive fluorophore Rhod-2 AM. mAb 3F8 can induce strong, sustainable calcium changes withing 5 minutes, while control mouse IgG has no effect. […] Shown are averages of 4 independent assays ± SEM.
Intracellular calcium studies: cells (1×10^6 per sample) were washed with Ringer's solution (155 mM NaCl, 4.5 mM KCl, 2 mM CaCl2, 1 mM MgCl2, 10 mM D-glucose, 5 mM HEPES) and resuspended in 1 ml Ringer's containing 10 μM p56^Lck inhibitor PP1 (BioMol) or vehicle for 15 minutes at 37° C. Then 5 μM Rhod-2AM (Molecular Probes) was then added to the cells and incubated for 30 minutes at room temprature with mild agitation. Cells were washed once in Ringer's, resuspended in 1 ml Ringer's and incubated for 30 minutes, after which cells were stimulated with the indicated ganglioside ligands (or calcium ionophore A23187 as control) and analyzed over a 30 minute period for intracellular Ca^2+ using a flow cytometer (Becton-Dickinson).

mAb 3F8-GD2 interactions = assay: Competitive ELISA: inhibition of mAb 3F8 binding to immobilized GD2 by peptides; design: key to Activity in SAR and deletion analysis (inactive mark): peptides marked by * are inactive; conditions: for % Inhibition of mAb 3F8-GD2 interactions: peptides 50 μg/well, 1 hour before mAb 3F8, immobilized GD2, no peptide = 0%, no mAb 3F8 = 100%, mean ± SEM of 5 experiments; for Activity in SAR and deletion analysis (inactive mark): Table 1 domains/peptides
Description: Detection of GD2 or GM1 by ELISA: 12.5 ng/well of ganglioside (GD2, Advanced Immunochemicals or GM1) were immobilized by drying onto PVC 96-well plates (Falcon), followed by blocking with PBS-0.5% BSA for one hour. Then, anti-GD2 mAb 3F8 or biotin-CTB were added for 10 minutes. The plate was washed three times with PBS-0.5% BSA and incubated 60 minutes with horseradish peroxidase (HRP)-conjugated anti-mouse antibody or HRP-conjugated-avidin. After three washes with PBS-0.5% BSA and two with PBS, the colorimetric substrate ABTS was added and the plate read at 414 nm on a Biorad 550 plate reader. Assessment of peptide-GD2 interaction by competitive ELISA: ELISAs were as described above, except that peptides (50 μg/well, in PBS) were added to the wells for 1 hour before anti-GD2 mAb 3F8 or anti-GM1 cholera toxin-B. Selectivity of inhibition is controlled by lack of effect upon GM1-CTB interactions. […] No competitor peptide added or control irrelevant peptide added were standardized as 100% binding. […] Inhibition of mAb 3F8 bindng to immobilized GD2 by peptides, measured by competitive ELISA. No peptide or control peptide treatments are standardized as 0% inhibition. No mAb 3F8 treatment is standardized as 100% inhibition. Average of 5 […] experiments, n=4 in each experiment. Mean±SEM.

human recombinant CD45 = biological target: T1, human recombinant CD45 (Homo sapiens, UniProt P08575); assay: In vitro CD45 phosphatase assay; type: biochemical; conditions: gangliosides 16.7 μM, pp60Src phosphoregulatory peptide substrate
T1 construct: purchased BioMol
T1 sequence (P08575 26-1306): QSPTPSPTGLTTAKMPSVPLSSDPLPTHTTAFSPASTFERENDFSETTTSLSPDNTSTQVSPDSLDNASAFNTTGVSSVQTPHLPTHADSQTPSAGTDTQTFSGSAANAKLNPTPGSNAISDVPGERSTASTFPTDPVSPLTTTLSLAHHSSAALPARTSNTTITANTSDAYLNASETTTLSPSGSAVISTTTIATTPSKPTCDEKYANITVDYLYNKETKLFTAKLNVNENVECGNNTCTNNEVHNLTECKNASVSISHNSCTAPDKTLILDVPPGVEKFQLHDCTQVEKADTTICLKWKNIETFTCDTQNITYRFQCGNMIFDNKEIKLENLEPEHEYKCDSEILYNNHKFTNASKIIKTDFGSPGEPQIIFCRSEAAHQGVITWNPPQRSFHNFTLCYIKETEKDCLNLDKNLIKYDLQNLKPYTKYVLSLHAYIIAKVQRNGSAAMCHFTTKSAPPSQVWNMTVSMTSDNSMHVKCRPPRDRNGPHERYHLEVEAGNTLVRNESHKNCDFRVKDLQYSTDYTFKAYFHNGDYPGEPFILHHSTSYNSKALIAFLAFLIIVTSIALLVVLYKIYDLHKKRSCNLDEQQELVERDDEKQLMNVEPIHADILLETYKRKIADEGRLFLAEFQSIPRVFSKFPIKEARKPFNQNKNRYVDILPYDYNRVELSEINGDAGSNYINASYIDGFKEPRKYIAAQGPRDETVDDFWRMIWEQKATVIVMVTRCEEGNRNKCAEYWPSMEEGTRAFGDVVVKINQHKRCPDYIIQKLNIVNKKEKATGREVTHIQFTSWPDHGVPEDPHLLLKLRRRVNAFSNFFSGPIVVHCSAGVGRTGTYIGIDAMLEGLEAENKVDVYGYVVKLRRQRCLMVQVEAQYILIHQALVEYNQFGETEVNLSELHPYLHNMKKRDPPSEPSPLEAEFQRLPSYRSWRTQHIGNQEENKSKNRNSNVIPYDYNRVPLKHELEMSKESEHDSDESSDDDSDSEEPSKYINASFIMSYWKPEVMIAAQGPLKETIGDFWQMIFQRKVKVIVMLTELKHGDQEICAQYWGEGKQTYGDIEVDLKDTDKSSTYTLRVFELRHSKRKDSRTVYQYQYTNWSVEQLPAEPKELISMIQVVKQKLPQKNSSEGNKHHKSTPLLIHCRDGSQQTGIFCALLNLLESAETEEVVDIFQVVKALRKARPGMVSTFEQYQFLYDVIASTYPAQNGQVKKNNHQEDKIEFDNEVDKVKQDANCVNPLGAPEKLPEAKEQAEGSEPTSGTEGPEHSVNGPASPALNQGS
Description: In vitro CD45 phosphatase assay: human recombinant CD45 enzyme (BioMol, 75 units/well) was preincubated in the absence (negative control) or presence of sodium orthovanadate (positive control) or various gangliosides (16.7 μM) for 20 minutes at room temperature in half-volume 96-well microtiter plates. A CD45-specific substrate (pp60^Src C-terminal phosphoregulatory peptide, 200 μM) was then added for 20 minutes at 30° C., afterwhich the reaction was stopped and quantified with BioMol Green reagent. Plates were read at 620 nm with a Biorad 550 platew reader.

[1] = biological target: T2, purified p56^Lck tyrosine kinase (Homo sapiens, UniProt P06239); assay: Effect of exogenous gangliosides on in vitro kinase activity of purified p56Lck; type: biochemical; conditions: control assays
T2 construct: purchased Upstate Biotechnology
T2 sequence (P06239 whole entry): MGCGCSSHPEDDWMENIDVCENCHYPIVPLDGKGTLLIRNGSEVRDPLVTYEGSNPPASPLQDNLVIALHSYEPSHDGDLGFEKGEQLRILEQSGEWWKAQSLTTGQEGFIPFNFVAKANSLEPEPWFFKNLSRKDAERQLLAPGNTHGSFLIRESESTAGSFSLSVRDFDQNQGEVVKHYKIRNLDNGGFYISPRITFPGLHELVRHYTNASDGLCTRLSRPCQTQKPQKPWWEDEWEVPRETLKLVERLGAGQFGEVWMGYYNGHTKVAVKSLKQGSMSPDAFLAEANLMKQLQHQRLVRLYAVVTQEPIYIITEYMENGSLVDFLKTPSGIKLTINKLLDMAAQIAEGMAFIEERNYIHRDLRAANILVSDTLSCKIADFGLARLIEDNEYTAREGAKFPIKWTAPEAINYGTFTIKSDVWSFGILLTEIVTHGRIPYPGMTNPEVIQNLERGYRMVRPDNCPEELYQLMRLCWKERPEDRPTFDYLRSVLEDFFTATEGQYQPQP
Description: The kinase activity of p56^Lck was evaluated by measuring the incorporation of ^32PO4 in a peptidic p56^Lck substrate over time, with or without GD2 or GM1. Presence of GD2, but not GM1, can positively alter the kinetics of p56^Lck kinase activity. Activity standardized to untreated p56^Lck at the 20 minute time point. Shown are averages of 3 to 5 assays±SEM.
Effect of exogenous GD2 on p56^Lck in vitro kinase assay: chromatographically purified p56^Lck tyrosine kinase (Upstate Biotechnology) was incubated on ice for 10 minutes in kinase buffer (100 mM Tris-HCl, pH 7.2, 125 mM MgCl2, 25 mM MnCl2, 2 mM EGTA, 150 μM ATP, 0.25 mM sodium orthovanadate, 2 mM DTT) with or without ˜20 fold molar excess of ganglioside and 10 μCi [γ-^32P]ATP. Then 10 μg of the Src kinase substrate peptide p34^cdc2(6-20) (Upstate Biothechnology) was added to the mix and incubated at room temperature for the times indicated, after which the reaction was stopped by addition of 100 μM iodoacetamide and by precipitation of proteins with final 10% TCA. The supematant (containing the phosphorylated peptide substrate, not precipitated by TCA) was spotted on a P81 paper (Whatman) and washed three times with 0.75% phosphoric acid and once with acetone. The [^32P]-peptide content was quantified using a Storm 840 phosphorimager with ImageQuant software.

Compound | % Inhibition of mAb 3F8-GD2 interactions (mAb 3F8-GD2 interactions) [%] | also measured
Cc1ccc(-c2nn(C(C)(C)C)c3ncnc(N)c23)cc1 [PP1] |  | Effect of p56Lck inhibitor on mAb 3F8-induction of Ca++ fluxes (EL4 GD2^positive cells): markedly decreased; also recorded: partially abolished
C G G I T N Y N C (CGGITNYNC) [Pep 54] | 40.34 ± 3.17 | 
C G G I T N Y N S A C (CGGITNYNSAC) [Pep 52] | 30.17 ± 2.69 | 
C G GI A N Y N C [Pep 58] | 47.60 ± 4.26 | 
C G GI A N Y N T S C [Pep 59] | 48.83 ± 5.01 | 
C I A N Y N T C (CIANYNTC) [Pep 60] | 30.94 ± 3.53 | 
C I T N Y N S C (CITNYNSC) [Pep 53] | 24.74 ± 3.29 | 
C T N Y G V C (CTNYGVC) [Pep 56] | 14.13 ± 5.43 | 
C T N Y G V H C (CTNYGVHC) [Pep 55] | 12.23 ± 4.41 | 
G G I A N Y N T S (GGIANYNTS) [Pep 57] | 4.33 ± 5.23 | Activity in SAR and deletion analysis (inactive mark) (mAb 3F8-GD2 interactions): *
G G I T N Y N S A L M (GGITNYNSALM) [Pep 51] | 44.96 ± 1.57 | Inhibition of GD2-mAb 3F8 interactions in ELISA, in words (mAb 3F8-GD2 interactions): can also act as a competitive inhibitor
GD1a |  | Inhibition of CD45 phosphatase activity (human recombinant CD45): 50%
YCTNYGVCY [core matches Pep 56 with added terminal Y residues] |  | Activity in SAR and deletion analysis (inactive mark) (mAb 3F8-GD2 interactions): *
YCTNYGVHCY [core matches Pep 55 with added terminal Y residues] |  | Activity in SAR and deletion analysis (inactive mark) (mAb 3F8-GD2 interactions): *
phosphatidylcholine |  | p56Lck kinase activity upon addition of exogenous lipid, in words [1]: not altered
